Data on two molecules can be found in patent US5191079A, “Quinolinecarboxylic acid derivatives” (priority 1990, dated 1993).

Converted amounts (≈) assume the structure as drawn. Where two headings read alike, the source gives them in different places.

The subject of data set [1] is Staphylococcus aureus IID 803. The data set can be described thus: Effect on treatment of general infectious disease (systemic infection in mice), Experiment 4. The data set is classed as in vivo, Staphylococcus aureus; ddY male mice. As for the experimental part:
(§1) Staphylococcus aureus IID 803
(§2) The test microorganism was subjected to standing culture in Brain heart infusion broth (manufactured by DIFCO) at 37° C. for 16 to 18 hours. The culture was then diluted with PBS (Dulbecco's phosphate buffered saline) to adjust the concentration of bacteria to 3×10^7 CFU/ml. The mixture was mixed with an equivalent amount of 10% (w/v) Mucin (BACTO MUCIN BACTERIOLOGICAL, manufactured by Difco Co.) to prepare a bacterial suspension. The thus prepared bacterial suspension (0.5 ml each) was intraperitoneally inoculated to ddY male mice (5 weeks age, weighing 22-29 g, 10 mice in each group), to infect the animals, by which systemic infectious model was prepared. One hour after the infection, a suspension of the test compound in 1% (w/v) aqueous gum arabic was orally adiministered to mice.
The mice were daily observed for one week, and from the survival number of mice after one week, the 50% effective dose (ED50) was calculated by Weil method.

In data set [2] the test system is clinically isolated Enterococcus faecalis. Kind of data set: In vitro antibacterial activity against clinical isolates, Experiment 2. Type of data set: cell-based. The note with it: for MIC50: 50% of strains, read-out: MIC50. In outline: (§3)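 Read-out is MIC on sensitivity test agar. Organisms are grown beforehand in sensitivity test broth, and each compound is supplied from a 1000 μg/ml standard solution diluted in sterilized distilled water.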

For data set [3], the system named is clinically isolated Staphylococcus epidermidis. Described as above. The note with it: Staphylococcus epidermidis; for MIC90: 90% of strains, read-out: MIC90. Type of data set: cell-based. In outline:
as §3

Data set [4] concerns clinically isolated Enterococcus faecium. The data set is described as above. The data set is classed as cell-based. The settings on record: for MIC: 25 clinical strains E. faecium. The method, boiled down: as §3
In data set [5] the test system is Staphylococcus epidermidis IAM 1296. Kind of data set: MIC, Experiment 1. The data set is classed as cell-based. The settings on record: IAM1296, S. epidermidis IAM 1296, Gram +, read-out: Min. inhib. concentr. (MIC). As for the experimental part: The compounds of the present invention ([…] and Q) were each dissolved in dimethylsulfoxide to prepare a solution of 5000 μg/ml in concentration. The compounds of the present invention (I, J and K) and the known compound (Y) were each dissolved in sterilized distilled water to prepare a solution of 5000 μg/ml in concentration. […] The test was carried out by a method as appointed by Japan Society of Chemotherapy [cf. Chemotherapy, 29, 76-79 (1981), TOKYO]. As to Streptococcus pneumoniae and Streptococcus pyogenes, Brain heart infusion broth (manufactured by DIFCO) was used as the medium for the preculture thereof, and a heart infusion agar medium containing 5% defibrinated horse blood (manufactured by Nissui Seiyaku K. K., Japan) was used as the medium for the measurement of minimum inhibitory concentration (MIC). As to other microorganisms, a sensitivity test broth (manufactured by Nissui Seiyaku K. K.) was used as the medium for the preculture thereof, and a sensitivity test agar medium (manufactured by Nissui Seiyaku K. K.) was used as the medium for the measurement of MIC.

A further data set has as its system bone marrow. Kind of data set: Micronucleus test, Experiment 8. The data set is classed as in vivo, ICR male mice. The note with it: oral 300, 1000, 3000 mg/kg, mouse bone marrow, 24 or 48 hours. Here is the method:
The compound (B) or (E) of the present invention was suspended in 1% aqueous gum arabic. The suspension was orally administered to ICR male mice (7-8 weeks age, weighing 30 to 39 g, 5 mice in each group) at a rate of 3000, 1000 or 300 mg/kg body weight of the test compound (B) or (E). After 24 hours or 48 hours, these mice were killed and the bone marrow was collected and observed the presence of micronuclei.

Data set [6] is described as follows: Acute toxicity, Experiment 6. Type of data set: in vivo, F344/DuCrj male and female rats. The settings on record: oral, 1000 and 2000 mg/kg, one week. As for the experimental part: 9,1-(Methylimino)methano-7-fluoro-8-(2-methoxymethylmorpholino)-5-oxo-5H-thiazolo[3,2-a]quinoline-4-carboxylic acid (compound of Example 20) [the compound (E) of the present invention] was suspended in 1% aqueous gum arabic to prepare a suspension in concentration of 100 mg/ml. The suspension was orally administered to F344/DuCrj male and female rats (5 weeks age, weighing 110 to 115 g in male, 91 to 95 g in female, 3 rats in each group), which had been fasted for 5 hours, at a rate of 1000 and 2000 mg/kg body weight of the test compound (E).

Data set [7] is described as follows: Acute toxicity, Experiment 5. Type of data set: in vivo. The settings on record: oral, 2000 mg/kg, one week. Here is the method: The compound (A) or (B) of the present invention was suspended in distilled water to prepare a suspension in concentration of 200 mg/ml and the compound (C) was suspended in distilled water to prepare a suspension in concentration of 100 mg/ml. The suspension was orally administered to ddY male mice (5 weeks age, weighing 19 to 24 g, 5 mice in each group), which had been fasted for 18 hours, at a rate of 2000 mg/kg body weight of the test compound.

In data set [8] the test system is Staphylococcus aureus IID 803. Kind of data set: Effect on treatment of general infectious disease (systemic infection in mice), Experiment 3. Type of data set: in vivo, Staphylococcus aureus; ddY male mice. Here is the method: as §1
as §2, with “to 4×10^7 -8×10^7” for “to 3×10^7”, “weighing 24-27” for “weighing 22-29”, “g, 5” for “g, 10”, “prepared.” for “prepared. One hour after the infection, a suspension of the test compound in 1% (w/v) aqueous gum arabic was orally adiministered to mice.”
The mice were daily observed for one week, and from the survival number of mice after one week, the 50% effective dose (ED50) was calculated by Weil method. This test was repeated several times and the average of ED50 was calculated.

Setting [9] is: 25 clinical strains E. faecalis.
Where [10] appears, read: 25 clinical strains S. epidermidis.

A word on the ED50: it is the dose at which the effect has come halfway, by size or by number of responders. What is called MIC90 is the lowest concentration that inhibits either 90% of growth or 90% of the strains tested, depending on the study. For orientation: MIC means the smallest concentration in the dilution series that meets the test's criterion for growth inhibition. As usually defined, the MIC50 is an inhibitory concentration at the 50% level, which refers to growth in some studies and to a panel of isolates in others.

For `COCC1CN(c2c(F)cc3c(=O)c(C(=O)O)c4scc5n4c3c2N(C)C5)CCO1` (stereo not shown) [Compound (E), 9,1-(Methylimino)methano-7-fluoro-8-(2-methoxymethylmorpholino)-5-oxo-5H-thiazolo[3,2-a]quinoline-4-carboxylic acid], the “protective effects against infection” value in data set [1] (Experiment 4, in words) is “excellent protective effects against infection”. Also, the ED50 in [1] (Staphylococcus aureus, IID803, 168 h, oral, 1 h after i.p. infection, mice, survival after one week, 3×10^7 CFU/ml, read-out: 50% effective dose (ED50)) was determined as 1.7 mg/kg. Further, the MIC90 was 6.25 µg/mL (≈ 14.4 µM) in data set [2], 0.39 µg/mL (≈ 0.9 µM) in data set [3] (setting [10]) and 6.25 µg/mL (≈ 14.4 µM) in data set [4]. Also, the MIC in data set [2] (setting [9]) was 0.1 to 6.25 µg/mL (≈ 0.231 to 14.4 µM); in data set [3] (setting [10]), 0.006 to 0.39 µg/mL (≈ 0.0138 to 0.9 µM); in data set [4] it was 0.1 to 12.5 µg/mL (≈ 0.231 to 28.8 µM); in data set [5] it was 0.05 µg/mL (≈ 0.115 µM). Besides, the MIC50 in data set [2] (setting [9]) amounted to 0.2 µg/mL (≈ 0.461 µM); in data set [3] (25 clinical strains S. epidermidis, 50% of strains, read-out: MIC50), 0.05 µg/mL (≈ 0.115 µM); in data set [4], 3.13 µg/mL (≈ 7.22 µM). Further, the micronucleus inducing activity entry in the data set on bone marrow was “no nucleus inducing activity”. Besides, in [6], the death of rats entry is reported as “no death of rats was observed”.
As to `CN1Cc2csc3c(C(=O)O)c(=O)c4cc(F)c(N5CCOC(CO)C5)c1c4n23` (stereo not shown) [Compound (B), 9,1-(Methylimino)methano-7-fluoro-8-(2-hydroxymethylmorpholino)-5-oxo-5H-thiazolo[3,2-a]quinoline-4-carboxylic acid], in data set [7], the death of mice entry is “no death of mice was observed”. The MIC in data set [2] (setting [9]) was 0.05 to 3.13 µg/mL (≈ 0.119 to 7.46 µM); in data set [3] (setting [10]), 0.006 to 0.78 µg/mL (≈ 0.0143 to 1.86 µM); in data set [4], 0.1 to 25 µg/mL (≈ 0.238 to 59.6 µM); in [5], 0.05 µg/mL (≈ 0.119 µM). In addition, the MIC50 in data set [2] (setting [9]) is 0.2 µg/mL (≈ 0.477 µM); in data set [3], 0.025 µg/mL (≈ 0.0596 µM); in data set [4] it was 1.56 µg/mL (≈ 3.72 µM). Moreover, the MIC90 in [2] (25 clinical strains E. faecalis, 90% of strains, read-out: MIC90) is 3.13 µg/mL (≈ 7.46 µM); in [3] (setting [10]) it was 0.39 µg/mL (≈ 0.93 µM); in [4], 6.25 µg/mL (≈ 14.9 µM). The micronucleus inducing activity entry with bone marrow is “no nucleus inducing activity”. In addition, the “protective effects against infection” value in data set [8] (Experiment 3, in words) is given as “excellent protective effects against infection”. In [8] (Staphylococcus aureus, IID803, 168 h, oral, 1 h after i.p. infection, mice, survival after one week, average of several tests, read-out: 50% effective dose (ED50)), the ED50 was 5.1 mg/kg.
